Laboratory results as given in patent publication US20240165196A1, “Beta-Lactamase Inhibitors” (VIB VZW, priority 2021, published 2024).

Tests used:
[1] = mouse, in vivo, iv, 5 mg/kg
Protocol: (§1) Vehicle alone (0.9% NaCl) was also administered (IV).

[2] = test system: uro-pathogenic E. coli strain (UPEC strain blaTEM-1); assay: MIC of ampicillin on the uro-pathogenic strain; assay type: cell-based; settings: 32 μg/ml of TEM3.2 or tazobactam
Protocol: as §1
Determination of MIC values using the broth microdilution in the 96-well plate (BD Biosciences, Belgium) according to the EUCAST guideline, which was performed in 96-well polystyrene flat bottom microtiter plates (BD Biosciences). Briefly, a single colony was inoculated into 5 mL Difco™ Mueller Hinton Broth (BD Biosciences Ref 275730) and grown to the end-exponential growth phase in a shaking incubator at 37° C. Cultures were subsequently diluted to an MacFarland (0.5 optical density) then the culture was diluted to reach 10^6 CFU/mL in fresh MHB medium. 50 μl of different concentration of peptides ranging from 128 to 2 μg/mL were serially diluted to the sterile 96-well plate in MHB. 50 μL of the diluted bacteria in MHB were pipetted into 96-well plates to reach the final volume of 100 μL. The bacteria grown with the maximum concentration of carrier and medium were considered as positive and negative controls, respectively. The plates were statically incubated overnight at 37° C. to allow bacterial growth. OD was measured at 590 nm a multipurpose ultraviolet-visible plate reader, and the absorbance of the growth bacteria was measured using absorbance reader. Bacterial growth was also visually inspected and agreed well with the OD reading.

[3] = test system: E. coli strain lacking TEM (ATCC 25922); assay: Structured Illumination Microscopy of peptide-treated bacteria lacking TEM; assay type: cell-based; settings: same treatment as UZ_TEM104
Protocol: FIGS. 3A-3P. […] Three replicates are shown for each condition. […] A single representative image is shown. […] Three replicates are shown for each condition. (FIG. 3E) [Left] […] [Middle] […] [Right] […] A single representative image is shown. […] A single representative image is shown. […] A single representative image is shown. […] A single representative blot is shown. […] 106 cells were analysed for the plot.
Moreover, we confirmed the presence of the protein in the correct band using mass spectrometry proteomics. We repeated this with a strain expressing SHV-154, blotting with a polyclonal rabbit antibody raised against the recombinant SHV enzyme described above (FIG. 3K).
The bacterial cultures were washed with PBS and the number of the bacteria were adjusted to 10^8-10^9 cells/mL. […] Then, cells were treated with LCO dyes (pFTAA; Amytacker™ 680 or Amytacker™ 545: final concentration of 0.5 μM; Ebba Biotech, Sweden) for at least 90 min. The absorption, emission and excitation spectra for each dye were measured based on the standard Ebbabiotec advice (ebbabiotech.com).
Bacteria were fixed by adding 2.5% paraformaldehyde and 0.04% glutaraldehyde (final concentrations) to the culture media, followed by incubation at room temperature for 15 mins and 30 mins on ice. Bacteria were then washed in PBS and resuspended in GTE buffer (50 mM glucose, 25 mM Tris, and 10 mM EDTA, pH 8.0). […]

[4] = test system: HeLa; assay type: cell-based, human
Source text: (§2) FIGS. 4A-4K. […] IV—Intravenous, IP—Intraperitoneal, SC—Subcutaneously. The data shown is from a single experiment with 4 animals per group. […] (ns—non significant, #—P>0.05, *—P≤0.05, ***—P≤0.01, ****—P≤0.001). (FIG. 4G) FICI plot as in FIG. 2, for the E. coli strains indicated and the combination of penicillin and the TEM3.2 peptide. […] (FIG. 4J) Same as FIG. 4H for peptide BGAL. (FIG. 4K) Same as FIG. 4H for peptide P33.
(§3) Given this broad activity on clinical isolates, we wondered if the TEM3.2 peptide could be used to re-sensitize bacteria to ampicillin treatment in vivo, in a mouse Urinary Tract Infection (UTI) model.

[5] = test system: SH-SY5Y; assay type: cell-based, human
[6] = test system: HEK293; assay type: cell-based, human
[7] = test system: 16 additional E. coli clinical isolates containing TEM or SHV enzymes; assay: MIC of ampicillin with fixed 30 μg/ml TEM3.2, isolate panel summary; assay type: cell-based; settings: 14 out of 16 isolates
Protocol: Moreover, the core sequence of peptide TEM3.0 also occurs in the structurally related SHV β-lactamase (FIG. 2E). Although the C-terminal extension residues H and N have been replaced with physicochemically similar R and Q, respectively (FIG. 2H). […] To quantify the synergy between these four peptides and penicillin G, we performed a so-called checkerboard assay, which allows to compare the activity of two test compounds co-incubated (here peptide and a beta-lactam antibiotic), to their individual activities in isolation. The result from the assay is quantified as the Fractional Inhibitory Concentration Index (FICI), and it is generally accepted that values below 0.5 indicate synergistic effects between the compounds. […] We evaluated the synergy of the peptides with penicillin G in clinical E. coli isolates carrying the TEM (FIG. 2I) or SHV enzymes (FIG. 2J). […]
Determination of MIC values using the broth microdilution in the 96-well plate (BD Biosciences, Belgium) according to the EUCAST guideline, which was performed in 96-well polystyrene flat bottom microtiter plates (BD Biosciences). […] OD was measured at 590 nm a multipurpose ultraviolet-visible plate reader, and the absorbance of the growth bacteria was measured using absorbance reader. Bacterial growth was also visually inspected and agreed well with the OD reading.

[8] = test system: human erythrocytes; assay type: cell-based
Source text: as §2, §3
EDTA was used as the anticoagulant. […] Plate centrifuged for 10 min at 3000×g. […] Erythrocytes in 1% Triton and maximum used concentration of buffer were used as the control of 100% and 0% hemolysis, respectively.

[9] = test system: NCI-H441; assay type: cell-based, human

Substance: Ac-RLTAFLHNRRPRLTAFLRQRR-NH2 [TEM3.2]
- hematologic analysis [1]: no major discrepancies to vehicle treated controls
- MIC Ampicillin in the presence of additive [2]: 25 µg/mL
- inclusion body formation [3]: only very limited inclusion body formation
- cytotoxicity (Cell Titer Blue) [4]: not cytotoxic
- cytotoxicity (Cell Titer Blue) [5]: not cytotoxic
- cytotoxicity (Cell Titer Blue) [6]: not cytotoxic
- clinical isolates sensitized to ampicillin [7]: 87%
- hemolysis of human erythrocytes [8]: not hemolytic
- cytotoxicity (Cell Titer Blue) [9]: not cytotoxic
